pIC50: −log10 of the molar value.
Test system: FGFR
Test: Kinase inhibition in cell-free enzymatic assay, FGFR
Type: biochemical
Settings: 1 mM ATP

- pIC50: < 4.90
SMILES: Cc1ccc(F)c(NC(=O)Nc2ccc(-c3cccc4[nH]nc(N)c34)cc2)c1 [RTKi, N-[4-(3-amino-1H-indazol-4-yl)phenyl]-N′-(2-fluoro-5-methylphenyl)urea]
